Results taken from paper PMC12310023 (PLOS Neglected Tropical Diseases, 2025).
Like-named read-outs stand apart in the source and are kept apart here.

Legend:
NLuc C. parvum = NLuc C. parvum growth in HCT-8 cells (UW); format: cell-based; conditions: Cryptosporidium parvum
C. hominis TU502 isolate = assay: Calibr high-content imaging Cryptosporidium panel; format: cell-based, Cryptosporidium hominis; conditions: Cryptosporidium hominis
PKD3 = PKD3 (Homo sapiens, UniProt O94806); assay: Kinome profiling; format: biochemical
[1] = Plasma concentrations in calf model; format: in vivo; conditions: after BKI-1708 5 mg/kg BID
5-HT2B [2] = target: T1, 5-HT2B (Homo sapiens, UniProt P41595); assay: Cerep binding assay; conditions: agonist radioligand, mean, read-out: % inhibition of control specific binding
T1 construct: Cerep (Eurofins, France)

Cl- channel (GABA-gated) = assay: Cerep binding assay
5-HT2B [3] = target: T1, 5-HT2B; assay: Cerep cellular and nuclear receptor functional assay; format: cell-based
CYP3A4 = CYP3A4 (Homo sapiens, UniProt P08684); assay: in vitro; conditions: recombinant CYP3A4 supersomes
hERG = hERG (Homo sapiens, UniProt Q12809); assay: cell-based
CYP2C9 [4] = target: T2, CYP2C9 (Homo sapiens, UniProt P11712); assay: biochemical
Cytotoxicity = conditions: human, CRL-8155 B-lymphocyte cell line
Hepatocyte stability = conditions: rat
[5] = Liver microsome stability; conditions: rat, pooled liver microsomes
[6] = Liver microsome stability; conditions: dog, pooled liver microsomes
[7] = Liver microsome stability; conditions: human, pooled liver microsomes
[8] = HCT-8 host cell count (Calibr); conditions: human
CYP1A2 = assay: CYP Induction Assay in dog hepatocytes; conditions: 30 and 100 μM, 48 h
CYP2C8 = target: T3, CYP2C8 (Homo sapiens, UniProt P10632); assay: CYP reaction phenotyping, recombinant supersomes
T3 sequence (P10632 1-490): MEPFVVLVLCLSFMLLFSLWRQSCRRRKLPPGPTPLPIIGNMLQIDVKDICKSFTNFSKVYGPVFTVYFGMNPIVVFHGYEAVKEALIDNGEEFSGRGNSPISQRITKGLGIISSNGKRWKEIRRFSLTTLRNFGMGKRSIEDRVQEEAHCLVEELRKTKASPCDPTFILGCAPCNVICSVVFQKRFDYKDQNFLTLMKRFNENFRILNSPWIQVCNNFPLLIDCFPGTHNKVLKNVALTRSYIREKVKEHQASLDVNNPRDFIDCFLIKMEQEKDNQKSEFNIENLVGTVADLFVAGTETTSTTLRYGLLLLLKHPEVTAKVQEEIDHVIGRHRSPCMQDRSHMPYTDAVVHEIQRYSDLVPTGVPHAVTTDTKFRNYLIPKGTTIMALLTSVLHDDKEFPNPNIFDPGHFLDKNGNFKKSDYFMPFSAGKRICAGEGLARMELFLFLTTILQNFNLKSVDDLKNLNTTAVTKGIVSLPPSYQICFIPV

CYP2C9 [9] = target: T2, CYP2C9; assay: CYP reaction phenotyping, recombinant supersomes
CYP2C19 = CYP2C19 (Homo sapiens, UniProt P33261); assay: CYP reaction phenotyping, recombinant supersomes
Sequence of CYP2C19 (P33261 whole entry): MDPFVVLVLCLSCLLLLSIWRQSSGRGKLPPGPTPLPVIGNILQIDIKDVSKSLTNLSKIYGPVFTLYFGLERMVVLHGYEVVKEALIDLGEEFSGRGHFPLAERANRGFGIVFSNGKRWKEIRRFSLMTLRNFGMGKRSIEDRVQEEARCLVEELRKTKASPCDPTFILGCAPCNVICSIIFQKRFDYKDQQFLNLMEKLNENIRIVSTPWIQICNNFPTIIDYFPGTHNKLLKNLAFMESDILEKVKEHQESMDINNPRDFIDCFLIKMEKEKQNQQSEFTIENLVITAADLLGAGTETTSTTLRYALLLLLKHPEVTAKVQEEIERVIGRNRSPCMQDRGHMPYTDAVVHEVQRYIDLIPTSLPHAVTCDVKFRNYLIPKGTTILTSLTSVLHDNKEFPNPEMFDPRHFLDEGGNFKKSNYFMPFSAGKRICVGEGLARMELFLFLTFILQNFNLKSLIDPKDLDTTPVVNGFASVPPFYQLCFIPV

T1 sequence (P41595 whole entry): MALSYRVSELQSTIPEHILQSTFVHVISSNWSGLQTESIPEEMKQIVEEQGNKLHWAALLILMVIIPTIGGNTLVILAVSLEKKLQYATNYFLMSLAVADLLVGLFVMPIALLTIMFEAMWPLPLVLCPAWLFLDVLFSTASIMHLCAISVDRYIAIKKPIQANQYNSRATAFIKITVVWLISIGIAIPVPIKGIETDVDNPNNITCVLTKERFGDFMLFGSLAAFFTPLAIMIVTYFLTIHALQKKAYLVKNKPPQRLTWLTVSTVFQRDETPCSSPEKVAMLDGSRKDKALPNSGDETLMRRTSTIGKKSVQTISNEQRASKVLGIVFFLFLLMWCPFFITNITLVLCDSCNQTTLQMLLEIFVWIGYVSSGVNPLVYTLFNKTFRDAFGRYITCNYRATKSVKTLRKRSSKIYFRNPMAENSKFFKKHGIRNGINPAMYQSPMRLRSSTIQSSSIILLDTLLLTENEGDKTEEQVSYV
T2 sequence (P11712 whole entry): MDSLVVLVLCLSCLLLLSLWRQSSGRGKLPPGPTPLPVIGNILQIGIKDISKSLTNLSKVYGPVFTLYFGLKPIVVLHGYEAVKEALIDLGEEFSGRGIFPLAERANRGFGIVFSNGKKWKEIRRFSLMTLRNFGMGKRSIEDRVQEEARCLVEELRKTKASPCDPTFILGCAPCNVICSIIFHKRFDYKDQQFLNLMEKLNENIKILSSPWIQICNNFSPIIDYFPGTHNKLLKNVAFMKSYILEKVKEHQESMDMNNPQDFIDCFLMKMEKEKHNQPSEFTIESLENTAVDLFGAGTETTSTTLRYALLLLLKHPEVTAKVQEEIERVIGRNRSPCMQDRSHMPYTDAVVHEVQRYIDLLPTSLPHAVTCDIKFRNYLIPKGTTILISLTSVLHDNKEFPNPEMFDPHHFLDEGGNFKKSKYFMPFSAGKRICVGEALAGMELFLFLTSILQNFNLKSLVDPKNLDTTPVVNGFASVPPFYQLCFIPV
Sequence of CYP3A4 (P08684 whole entry): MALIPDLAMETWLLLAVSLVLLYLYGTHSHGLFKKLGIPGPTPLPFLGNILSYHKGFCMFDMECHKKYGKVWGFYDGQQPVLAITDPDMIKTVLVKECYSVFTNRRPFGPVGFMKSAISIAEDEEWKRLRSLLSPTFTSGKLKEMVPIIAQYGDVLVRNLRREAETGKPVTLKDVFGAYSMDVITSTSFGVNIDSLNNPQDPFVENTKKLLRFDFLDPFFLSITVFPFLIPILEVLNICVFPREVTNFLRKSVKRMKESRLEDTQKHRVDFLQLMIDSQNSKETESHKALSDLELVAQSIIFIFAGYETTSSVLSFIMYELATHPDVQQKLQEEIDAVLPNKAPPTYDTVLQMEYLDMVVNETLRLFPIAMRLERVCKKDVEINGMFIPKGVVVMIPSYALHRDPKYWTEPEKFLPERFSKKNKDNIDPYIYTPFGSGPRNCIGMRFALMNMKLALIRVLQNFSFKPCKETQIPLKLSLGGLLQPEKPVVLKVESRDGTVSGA
Sequence of PKD3 (O94806 whole entry): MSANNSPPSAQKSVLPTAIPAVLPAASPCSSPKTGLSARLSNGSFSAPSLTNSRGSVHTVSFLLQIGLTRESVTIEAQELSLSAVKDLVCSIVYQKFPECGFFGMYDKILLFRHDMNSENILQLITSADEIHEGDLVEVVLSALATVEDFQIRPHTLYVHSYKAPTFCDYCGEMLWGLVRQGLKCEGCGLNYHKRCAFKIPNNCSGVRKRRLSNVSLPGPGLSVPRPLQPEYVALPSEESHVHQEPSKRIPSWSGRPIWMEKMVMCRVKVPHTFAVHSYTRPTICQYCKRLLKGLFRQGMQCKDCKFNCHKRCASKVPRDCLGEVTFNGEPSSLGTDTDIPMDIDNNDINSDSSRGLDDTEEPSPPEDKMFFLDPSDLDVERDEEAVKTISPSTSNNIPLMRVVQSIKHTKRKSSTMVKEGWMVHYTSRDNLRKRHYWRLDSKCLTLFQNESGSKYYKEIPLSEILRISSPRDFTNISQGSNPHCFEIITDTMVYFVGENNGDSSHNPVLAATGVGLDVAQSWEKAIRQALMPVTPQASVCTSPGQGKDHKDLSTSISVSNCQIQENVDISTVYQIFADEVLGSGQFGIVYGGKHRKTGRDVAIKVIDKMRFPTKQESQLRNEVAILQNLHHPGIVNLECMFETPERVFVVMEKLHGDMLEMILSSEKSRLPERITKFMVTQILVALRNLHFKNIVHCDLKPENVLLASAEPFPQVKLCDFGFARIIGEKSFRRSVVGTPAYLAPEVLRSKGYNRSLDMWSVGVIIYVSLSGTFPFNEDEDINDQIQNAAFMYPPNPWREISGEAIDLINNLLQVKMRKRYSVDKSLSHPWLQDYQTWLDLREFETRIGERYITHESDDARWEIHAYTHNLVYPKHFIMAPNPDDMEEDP
Sequence of hERG (Q12809 whole entry): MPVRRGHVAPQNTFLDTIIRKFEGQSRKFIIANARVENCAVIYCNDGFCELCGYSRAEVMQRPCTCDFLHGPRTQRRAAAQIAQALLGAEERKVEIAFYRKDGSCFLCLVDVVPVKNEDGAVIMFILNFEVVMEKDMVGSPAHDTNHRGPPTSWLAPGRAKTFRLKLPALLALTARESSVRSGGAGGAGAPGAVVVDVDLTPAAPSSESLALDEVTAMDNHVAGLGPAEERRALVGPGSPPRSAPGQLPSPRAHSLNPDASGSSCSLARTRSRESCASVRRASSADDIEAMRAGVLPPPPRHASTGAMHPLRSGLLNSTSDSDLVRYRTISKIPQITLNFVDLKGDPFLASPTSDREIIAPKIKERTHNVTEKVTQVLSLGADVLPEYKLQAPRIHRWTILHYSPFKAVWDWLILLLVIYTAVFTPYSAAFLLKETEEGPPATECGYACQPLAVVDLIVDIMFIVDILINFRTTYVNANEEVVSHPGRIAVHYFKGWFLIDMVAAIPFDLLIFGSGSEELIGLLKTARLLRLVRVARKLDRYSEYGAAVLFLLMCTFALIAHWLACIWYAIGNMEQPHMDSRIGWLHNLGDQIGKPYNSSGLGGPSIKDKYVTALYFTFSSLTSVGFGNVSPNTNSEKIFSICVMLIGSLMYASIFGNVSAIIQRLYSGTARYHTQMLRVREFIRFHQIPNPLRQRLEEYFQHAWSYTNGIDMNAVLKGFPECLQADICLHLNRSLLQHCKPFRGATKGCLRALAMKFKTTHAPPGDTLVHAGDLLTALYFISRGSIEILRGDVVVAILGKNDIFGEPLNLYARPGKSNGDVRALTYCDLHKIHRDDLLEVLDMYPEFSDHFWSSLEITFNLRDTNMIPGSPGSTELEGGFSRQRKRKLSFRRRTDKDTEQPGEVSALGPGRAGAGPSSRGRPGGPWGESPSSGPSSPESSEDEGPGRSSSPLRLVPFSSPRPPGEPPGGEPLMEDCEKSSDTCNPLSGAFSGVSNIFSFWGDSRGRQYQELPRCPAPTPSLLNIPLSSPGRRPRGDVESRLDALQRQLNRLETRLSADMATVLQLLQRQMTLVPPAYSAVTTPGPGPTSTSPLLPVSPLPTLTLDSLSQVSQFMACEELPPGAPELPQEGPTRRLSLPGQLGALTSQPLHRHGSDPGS

CC1(C)Cn2nc(-c3ccc4cc(OC5CC5)ccc4c3)c(C(N)=O)c2NC1O (stereo not drawn) [M2]
EC50 (NLuc C. parvum): 730 nM
EC50 (C. hominis TU502 isolate): 440 nM
EC90 (C. hominis TU502 isolate): 1670 nM
EC50 (C. hominis TU502 isolate; read-out: TU502 C. hominis Count EC50, Replicate 1): 458 nM
EC50 (C. hominis TU502 isolate; read-out: TU502 C. hominis Count EC50, Replicate 2): 428 nM
EC90 (C. hominis TU502 isolate; read-out: TU502 C. hominis Count EC90, Replicate 1): 1930 nM
EC90 (C. hominis TU502 isolate; read-out: TU502 C. hominis Count EC90, Replicate 2): 1410 nM
IC50 (PKD3): 230 nM
average peak concentration of M2 [1]: 7.1 ± 4.4 µM
inhibition at 10 µM (5-HT2B [2]): 57.1%
IC50 (Cl- channel (GABA-gated)): 17000 nM
% inhibition of control specific binding (Cl- channel (GABA-gated); 10 μM, antagonist radioligand, mean): 50.6%
agonist effect (5-HT2B [3]): no effect up to 100 μM
IC50 (5-HT2B [3]; read-out: IC50, antagonist effect): 20000 nM
CLint scaled (CYP3A4): 5.02 mL/min/kg
half-life (CYP3A4): 0.817 h
IC50 (hERG): 6200 nM
IC50 (CYP2C9 [4]): > 40000 nM
CC50 (Cytotoxicity): 15600 nM
LM:hepatocyte CLint_scaled ratio (Hepatocyte stability; liver microsomes and primary hepatocytes): <0.7
CLint scaled (Hepatocyte stability; primary hepatocytes): 63.3 mL/min/kg
half-life (Hepatocyte stability; primary hepatocytes): 1.75 h
hepatocyte CLint (Hepatocyte stability; primary hepatocytes): 13.2 µL/min/1e6 cells
CLint scaled [5]: < 41.7 mL/min/kg
half-life [5]: > 2 h
microsomal CLint [5]: < 23.1 µL/min/mg
CLint scaled [6]: < 33.3 mL/min/kg
half-life [6]: > 2 h
microsomal CLint [6]: < 23.1 µL/min/mg
CLint scaled [7]: < 25 mL/min/kg
half-life [7]: > 2 h
microsomal CLint [7]: < 23.1 µL/min/mg
CC50 ([8]; CC50, HCT-8 cells infected with BGF Cp, Replicate 1): > 25000 nM
CC50 ([8]; CC50, HCT-8 cells infected with BGF Cp, Replicate 2): > 25000 nM
CC50 ([8]; CC50, HCT-8 cells infected with Ch, Replicate 1): > 25000 nM
CC50 ([8]; CC50, HCT-8 cells infected with Ch, Replicate 2): > 25000 nM
CC50 ([8]; CC50, HCT-8 cells infected with UA Nluc Cp, Replicate 1): > 25000 nM
CC50 ([8]; CC50, HCT-8 cells infected with UA Nluc Cp, Replicate 2): > 25000 nM
induction of CYP1A2 (CYP1A2): strong inducers
% contribution (CYP2C8): 0.0%
CLint (CYP2C8): <0.029 µL/min/pmol
% contribution (CYP2C9 [9]): 0.0%
CLint (CYP2C9 [9]): <0.029 µL/min/pmol
% contribution (CYP2C19): 0.0%
CLint (CYP2C19): <0.029 µL/min/pmol
